Results as given in EP2272817A1, “PAI-1 INHIBITOR” (Institute of Medicinal Molecular Design, Inc., priority 2008, dated 2009).

biological target: recombinant human PAI-1 (Homo sapiens, UniProt P05121); assay: Test Example 2: Human PAI-1 Inhibitory Activity (pH 7.4 HEPES buffer, 10 minutes incubation with two-chain tPA); type: biochemical; set-up: purchased Molecular Innovations, Inc; details: human PAI-1; calculated from the inhibition rates
Procedure: 0.1 M HEPES, 0.1 M NaCl. 1 mM EDTA. 0.1 % Polyethylene glycol 8,000 (Hampton Research Corporation),
2 mM Dimethyldecylphoshine oxide [Apo-10] (Fluka Corporation)

Chain of recombinant human PAI-1 (P05121 24-402): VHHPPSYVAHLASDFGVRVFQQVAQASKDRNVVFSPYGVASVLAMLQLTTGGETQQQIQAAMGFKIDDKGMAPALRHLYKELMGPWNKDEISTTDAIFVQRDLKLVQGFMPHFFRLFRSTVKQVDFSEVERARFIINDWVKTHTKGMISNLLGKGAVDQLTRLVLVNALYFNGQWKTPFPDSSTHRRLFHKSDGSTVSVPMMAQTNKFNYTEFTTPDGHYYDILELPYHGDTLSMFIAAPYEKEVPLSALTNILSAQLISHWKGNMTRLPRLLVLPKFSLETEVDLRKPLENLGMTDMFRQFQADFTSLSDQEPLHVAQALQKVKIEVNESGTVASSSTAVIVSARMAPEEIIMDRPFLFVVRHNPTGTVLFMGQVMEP

IC50	SMILES
1.46 µM	CC(C)(C)c1ccc(Oc2ccc(-c3ccc(C(F)(F)F)cc3)cc2OCC(=O)O)cc1 [Compound 328]

same assay, conditions: read-out: Inhibition Rate of PAI-1 Activity (%)

SMILES	inhibition at 0.1 µM	inhibition at 0.3 µM	inhibition at 1 µM	inhibition at 3 µM	inhibition at 10 µM	inhibition at 25 µM
CCCCCCOc1cc(-c2ccc(OC(F)(F)F)cc2)ccc1OC(CCCCCC)C(=O)O (centres unmarked) [Compound 430]	1%	15%	97%	> 99%		
CC(C)(C)c1ccc(Oc2ccc(Nc3ccc(OC(F)(F)F)cc3)cc2/C=C/C(=O)O)cc1 [Compound 431]	0%	0%	77%	> 99%		
CCCCCOc1ccc(-c2cccc(C)c2)cc1N(CCCCc1ccccc1)C(=O)C(=O)O [Compound 379]	14%	17%	78%	92%		
CC(C)(C)c1ccc(Oc2ccc(-c3ccc(C(F)(F)F)cc3)cc2OCC(=O)O)cc1 [Compound 328]	0%	14%	30%	> 99%		
CCCCC(Oc1ccc(-c2cccc(C)c2)cc1Oc1ccc(C(C)(C)C)cc1)C(=O)O (centres unmarked) [Compound 321]	3%	15%	86%	94%		
CCCCC(Oc1cc(-c2cccc(C(F)(F)F)c2)ccc1Oc1ccc(C(C)(C)C)cc1)C(=O)O (centres unmarked) [Compound 318]	8%	20%	90%	> 99%		
CCCCC(Oc1cc(Oc2ccc(OC(F)(F)F)cc2)ccc1OCCCCc1ccccc1)C(=O)O (centres unmarked) [Compound 309]	1%	17%	66%	91%		
CC(C)(C)c1cccc(Oc2cc(-c3ccc(OC(F)(F)F)cc3)ccc2OCC(=O)O)c1 [Compound 436]	3%	19%	63%	> 99%		
CCCCCOc1ccc(-c2ccc(F)cc2)cc1N(CCCCc1ccccc1)C(=O)C(=O)O [Compound 359]	1%	7%	26%	96%		
CCCN(CC(=O)O)c1cc(-c2ccc(OC(F)(F)F)cc2)ccc1Oc1ccc(C(C)(C)C)cc1 [Compound 435]	12%	29%	81%	98%		
CCCCOc1ccc(-c2ccc(OC(F)(F)F)cc2)cc1CCC(=O)O [Compound 407]			14%	41%	> 99%	98%
CCCCCOc1ccc(-c2ccc(OC(F)(F)F)cc2)cc1N(CCCCOc1ccccc1)C(=O)C(=O)O [Compound 374]	5%	16%	57%	> 99%		
CC(C)c1ccc(-c2ccc(OCC(=O)O)c(Oc3ccc(C(C)(C)C)cc3)c2)cc1 [Compound 441]	9%	29%	89%	98%		
CCCCCCCCCOc1ccc(N(CCCCc2ccccc2)C(=O)C(=O)O)cc1-c1ccc(OC(F)(F)F)cc1 [Compound 387]	66%	> 99%	> 99%	> 99%		

More lines, now with the values ahead:

inhibition at 0.1 µM	inhibition at 0.3 µM	inhibition at 1 µM	inhibition at 3 µM	inhibition at 10 µM	inhibition at 25 µM	SMILES
4%	23%	86%	89%			CCCCCOc1cc(-c2ccc(OC(F)(F)F)cc2)ccc1CN(C(=O)C(=O)O)c1ccc(C(C)(C)C)cc1 [Compound 648]
3%	15%	92%	> 99%			CCCCCOc1ccc(-c2cc(C)cc(C)c2)cc1N(CCCCc1ccccc1)C(=O)C(=O)O [Compound 672]
0%	15%	> 99%	> 99%			O=C(O)C(=O)N(CCCCc1ccccc1)c1ccc(N2CCCC2)c(-c2ccc(OC(F)(F)F)cc2)c1 [Compound 673]
12%	59%	> 99%	> 99%			CC(C)(C)c1ccc(Oc2cc(Nc3ccc(OC(F)(F)F)cc3)ccc2CCC(=O)O)cc1 [Compound 532]
0%	19%	92%	92%			CCCCCOc1ccc(-c2ccc(OC(F)(F)F)cc2)cc1N(CCCCc1ccccc1)CC(=O)O [Compound 640]
2%	21%	72%	81%			CC(C)(C)c1ccc(Oc2ccc(-c3ccc(OC(F)(F)F)cc3)cc2N(CCCCc2ccccc2)C(=O)C(=O)O)cc1 [Compound 636]
4%	17%	97%	> 99%			CC(C)(C)c1ccc(Sc2cc(-c3ccc(OC(F)(F)F)cc3)ccc2C(=O)O)cc1 [Compound 547]
3%	38%	94%	96%			CC(C)(C)c1ccc(Oc2cc(Nc3ccc(OC(F)(F)F)cc3)ccc2/C=C/C(=O)O)cc1 [Compound 531]
0%	5%	80%	71%			CCCCC1CCC(Oc2ccc(-c3ccc(OC(F)(F)F)cc3)cc2N(CCCCc2ccccc2)C(=O)C(=O)O)CC1 (centres unmarked) [Compound 637]
24%	64%	95%	88%			O=C(O)C(=O)N(CCCCc1ccccc1)c1cc(-c2ccc(OC(F)(F)F)cc2)ccc1OCCCC1CCCCC1 [Compound 656]
1%	19%	> 99%	> 99%			CC(C)c1ccc(-c2ccc(CCC(=O)O)c(Oc3ccc(C(C)(C)C)cc3)c2)cc1 [Compound 519]
12%	16%	86%	> 99%			CC(C)(C)c1cccc(Oc2cc(-c3cccc(OC(F)(F)F)c3)ccc2CCC(=O)O)c1 [Compound 515]
6%	36%	98%	> 99%			CC(C)(C)c1ccc(Oc2cc(-c3ccc(OC(F)(F)F)cc3)ccc2CCCC(=O)O)cc1 [Compound 527]
6%	26%	95%	> 99%			CCCCCOc1ccc(-c2ccc(OC(F)(F)F)cc2)cc1CN(C(=O)C(=O)O)c1ccc(C(C)(C)C)cc1 [Compound 645]
20%	50%	95%	> 99%			CC(C)(C)c1ccc(Sc2cc(-c3ccc(OC(F)(F)F)cc3)ccc2CCC(=O)O)cc1 [Compound 517]
14%	30%	45%	91%			CC(C)(C)c1ccc(Oc2cc(-c3ccc(OC(F)(F)F)cc3)ccc2N(CCCCc2ccccc2)C(=O)C(=O)O)cc1 [Compound 635]
33%	71%	98%	98%			CCC(CC)Oc1ccc(-c2ccc(CCC(=O)O)c(Oc3ccc(C(C)(C)C)cc3)c2)cc1 [Compound 522]
